# ChEMBL document CHEMBL5442175, “EUbOPEN Chemogenomics Library - PDSP Secondary Binding” (2024)
# Tests used:
# Histamine H4 receptor = Histamine H4 receptor (Homo sapiens, UniProt Q9H3N8); assay: (§1) PDSP Secondary Binding target: HRH4 - Compounds are tested at 10 uM concentration, plate are incubated at room temperature in the dark for 90 minutes. Reaction are stopped by vacuum filtration onto 0.3% polyethyleneimine soaked filter mats using Filtermate harvester. Scintillation cocktail is then melted onto microwave-dried filters on a hot plate and the radio activity is counted in Microbia counter.
# [1] = target: Kappa-type opioid receptor (Homo sapiens, UniProt P41145); assay: as §1, with “OPRK1” for “HRH4”
# [2] = target: Delta-type opioid receptor (Homo sapiens, UniProt P41143); assay: as §1, with “OPRD1” for “HRH4”
# [3] = target: Sigma non-opioid intracellular receptor 1 (Homo sapiens, UniProt Q99720); assay: as §1, with “SIGMAR1” for “HRH4”
# Mu-type opioid receptor = Mu-type opioid receptor (Homo sapiens, UniProt P35372); assay: as §1, with “OPRM1” for “HRH4”
# [4] = target: Muscarinic acetylcholine receptor M3 (Homo sapiens, UniProt P20309); assay: as §1, with “CHRM3” for “HRH4”
# D(4) dopamine receptor = target: T1, D(4) dopamine receptor (Homo sapiens, UniProt P21917); assay: as §1, with “DRD4” for “HRH4”
# T1 sequence (P21917 whole entry): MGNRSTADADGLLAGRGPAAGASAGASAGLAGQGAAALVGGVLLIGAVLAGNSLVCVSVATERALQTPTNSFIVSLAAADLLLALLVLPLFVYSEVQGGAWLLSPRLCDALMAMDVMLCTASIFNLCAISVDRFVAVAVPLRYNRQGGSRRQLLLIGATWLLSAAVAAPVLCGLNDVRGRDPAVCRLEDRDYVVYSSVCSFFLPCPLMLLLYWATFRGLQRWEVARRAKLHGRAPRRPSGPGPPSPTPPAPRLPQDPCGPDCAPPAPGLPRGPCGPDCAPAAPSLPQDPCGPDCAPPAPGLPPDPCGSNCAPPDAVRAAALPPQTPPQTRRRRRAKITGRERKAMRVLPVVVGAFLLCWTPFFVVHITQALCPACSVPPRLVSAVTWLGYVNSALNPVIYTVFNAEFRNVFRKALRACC
# [5] = target: T2, Muscarinic acetylcholine receptor M1 (Homo sapiens, UniProt P11229); assay: as §1, with “CHRM1” for “HRH4”
# T2 sequence (P11229 whole entry): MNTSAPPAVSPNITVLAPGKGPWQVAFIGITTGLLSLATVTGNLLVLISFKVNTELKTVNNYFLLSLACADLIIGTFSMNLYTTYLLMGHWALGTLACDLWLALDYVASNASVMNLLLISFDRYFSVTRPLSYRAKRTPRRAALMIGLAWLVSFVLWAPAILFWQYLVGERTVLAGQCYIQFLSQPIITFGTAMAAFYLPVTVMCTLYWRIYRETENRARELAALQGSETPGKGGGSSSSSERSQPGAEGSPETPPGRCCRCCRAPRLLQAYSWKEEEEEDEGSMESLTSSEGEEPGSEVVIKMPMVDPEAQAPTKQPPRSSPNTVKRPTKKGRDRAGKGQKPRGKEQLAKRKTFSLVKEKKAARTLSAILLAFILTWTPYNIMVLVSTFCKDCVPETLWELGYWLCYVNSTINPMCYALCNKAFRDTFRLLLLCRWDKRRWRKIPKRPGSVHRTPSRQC
# [6] = target: T3, Muscarinic acetylcholine receptor M2 (Homo sapiens, UniProt P08172); assay: as §1, with “CHRM2” for “HRH4”
# T3 sequence (P08172 whole entry): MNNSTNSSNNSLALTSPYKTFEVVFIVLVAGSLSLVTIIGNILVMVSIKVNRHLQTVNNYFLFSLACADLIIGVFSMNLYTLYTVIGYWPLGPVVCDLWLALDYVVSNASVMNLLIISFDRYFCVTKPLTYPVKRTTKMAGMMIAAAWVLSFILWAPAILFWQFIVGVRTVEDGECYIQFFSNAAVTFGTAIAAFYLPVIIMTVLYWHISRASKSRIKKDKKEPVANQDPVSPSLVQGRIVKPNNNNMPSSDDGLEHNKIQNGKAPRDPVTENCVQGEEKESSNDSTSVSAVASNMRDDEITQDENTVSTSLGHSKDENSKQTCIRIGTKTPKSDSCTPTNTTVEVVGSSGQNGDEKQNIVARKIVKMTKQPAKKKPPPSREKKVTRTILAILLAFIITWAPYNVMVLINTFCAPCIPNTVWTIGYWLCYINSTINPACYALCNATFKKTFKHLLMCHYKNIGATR
# [7] = target: Beta-2 adrenergic receptor (Homo sapiens, UniProt P07550); assay: as §1, with “ADRB2” for “HRH4”
# [8] = target: T4, Muscarinic acetylcholine receptor M4 (Homo sapiens, UniProt P08173); assay: as §1, with “CHRM4” for “HRH4”
# T4 sequence (P08173 whole entry): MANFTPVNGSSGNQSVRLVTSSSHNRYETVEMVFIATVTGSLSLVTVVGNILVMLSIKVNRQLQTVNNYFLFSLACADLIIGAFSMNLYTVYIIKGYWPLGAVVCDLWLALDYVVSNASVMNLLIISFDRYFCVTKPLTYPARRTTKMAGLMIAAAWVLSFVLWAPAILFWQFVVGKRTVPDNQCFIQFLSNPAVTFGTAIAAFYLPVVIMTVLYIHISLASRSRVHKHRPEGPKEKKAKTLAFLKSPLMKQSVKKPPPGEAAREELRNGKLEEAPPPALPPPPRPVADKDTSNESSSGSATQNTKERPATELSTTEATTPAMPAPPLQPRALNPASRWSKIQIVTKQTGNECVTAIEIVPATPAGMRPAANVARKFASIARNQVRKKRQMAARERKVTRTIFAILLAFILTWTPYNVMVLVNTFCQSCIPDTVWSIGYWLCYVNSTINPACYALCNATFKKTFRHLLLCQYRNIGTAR
# Histamine H2 receptor = Histamine H2 receptor (Homo sapiens, UniProt P25021); assay: as §1, with “HRH2” for “HRH4”
# D(3) dopamine receptor = D(3) dopamine receptor (Homo sapiens, UniProt P35462); assay: as §1, with “DRD3” for “HRH4”
# [9] = target: T5, Muscarinic acetylcholine receptor M5 (Homo sapiens, UniProt P08912); assay: as §1, with “CHRM5” for “HRH4”
# T5 sequence (P08912 whole entry): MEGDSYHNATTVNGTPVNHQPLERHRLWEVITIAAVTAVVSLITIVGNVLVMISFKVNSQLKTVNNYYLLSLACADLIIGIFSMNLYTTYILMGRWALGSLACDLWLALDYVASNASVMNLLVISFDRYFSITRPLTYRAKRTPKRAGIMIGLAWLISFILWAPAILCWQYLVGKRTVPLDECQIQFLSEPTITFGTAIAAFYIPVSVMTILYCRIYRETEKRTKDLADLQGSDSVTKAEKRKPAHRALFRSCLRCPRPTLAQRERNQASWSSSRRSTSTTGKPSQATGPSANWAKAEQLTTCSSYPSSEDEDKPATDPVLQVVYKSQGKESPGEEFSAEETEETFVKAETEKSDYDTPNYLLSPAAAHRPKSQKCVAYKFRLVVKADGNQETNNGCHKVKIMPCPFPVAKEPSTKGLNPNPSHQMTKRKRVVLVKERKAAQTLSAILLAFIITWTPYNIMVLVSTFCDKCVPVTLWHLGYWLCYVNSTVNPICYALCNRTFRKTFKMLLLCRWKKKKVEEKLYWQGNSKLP
# [10] = target: Sodium-dependent dopamine transporter (Homo sapiens, UniProt Q01959); assay: as §1, with “SLC6A3” for “HRH4”
# Histamine H3 receptor = Histamine H3 receptor (Homo sapiens, UniProt Q9Y5N1); assay: as §1, with “HRH3” for “HRH4”
# [11] = target: T6, Alpha-2A adrenergic receptor (Homo sapiens, UniProt P08913); assay: as §1, with “ADRA2A” for “HRH4”
# T6 sequence (P08913 whole entry): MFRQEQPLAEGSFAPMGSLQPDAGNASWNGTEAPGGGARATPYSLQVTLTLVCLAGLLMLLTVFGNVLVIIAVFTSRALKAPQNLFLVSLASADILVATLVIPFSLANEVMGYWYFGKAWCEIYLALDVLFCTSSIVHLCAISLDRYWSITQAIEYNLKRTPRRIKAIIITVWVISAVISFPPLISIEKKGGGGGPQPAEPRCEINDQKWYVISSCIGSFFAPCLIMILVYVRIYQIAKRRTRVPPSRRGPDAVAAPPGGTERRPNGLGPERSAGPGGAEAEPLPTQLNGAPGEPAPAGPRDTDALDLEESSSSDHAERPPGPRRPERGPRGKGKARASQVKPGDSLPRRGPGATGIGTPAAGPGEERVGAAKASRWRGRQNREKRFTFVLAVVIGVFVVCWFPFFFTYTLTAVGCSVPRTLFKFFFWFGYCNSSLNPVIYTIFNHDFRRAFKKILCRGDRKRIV
# [12] = target: 5-hydroxytryptamine receptor 2A (Homo sapiens, UniProt P28223); assay: as §1, with “HTR2A” for “HRH4”
# [13] = target: Sigma intracellular receptor 2 (Homo sapiens, UniProt Q5BJF2); assay: as §1, with “TMEM97” for “HRH4”
# [14] = target: Sodium-dependent noradrenaline transporter (Homo sapiens, UniProt P23975); assay: as §1, with “SLC6A2” for “HRH4”
# Histamine H1 receptor = Histamine H1 receptor (Homo sapiens, UniProt P35367); assay: as §1, with “HRH1” for “HRH4”
# Sequence of Histamine H1 receptor (P35367 whole entry): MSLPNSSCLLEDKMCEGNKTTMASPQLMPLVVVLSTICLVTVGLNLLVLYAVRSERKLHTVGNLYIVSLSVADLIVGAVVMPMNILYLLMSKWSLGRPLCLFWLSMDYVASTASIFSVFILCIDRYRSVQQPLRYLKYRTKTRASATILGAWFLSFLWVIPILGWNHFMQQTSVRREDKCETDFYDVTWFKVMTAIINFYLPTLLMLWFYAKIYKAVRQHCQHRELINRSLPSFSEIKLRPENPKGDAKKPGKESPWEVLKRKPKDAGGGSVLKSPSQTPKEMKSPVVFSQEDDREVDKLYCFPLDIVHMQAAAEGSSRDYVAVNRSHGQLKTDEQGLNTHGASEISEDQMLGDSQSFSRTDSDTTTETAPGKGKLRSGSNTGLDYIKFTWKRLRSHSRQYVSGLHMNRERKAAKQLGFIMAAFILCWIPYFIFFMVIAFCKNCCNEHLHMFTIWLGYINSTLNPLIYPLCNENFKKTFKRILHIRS
# Sequence of Delta-type opioid receptor (P41143 whole entry): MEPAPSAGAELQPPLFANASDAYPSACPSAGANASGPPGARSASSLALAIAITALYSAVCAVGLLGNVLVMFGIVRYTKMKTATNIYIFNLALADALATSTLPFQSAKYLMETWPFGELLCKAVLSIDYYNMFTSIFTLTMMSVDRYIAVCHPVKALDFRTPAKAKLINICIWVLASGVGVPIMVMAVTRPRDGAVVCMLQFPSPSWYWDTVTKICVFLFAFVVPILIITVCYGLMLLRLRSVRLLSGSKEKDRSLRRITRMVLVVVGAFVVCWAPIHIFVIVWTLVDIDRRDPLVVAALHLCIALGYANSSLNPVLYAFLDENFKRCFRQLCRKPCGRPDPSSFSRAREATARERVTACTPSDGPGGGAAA
# Sequence of Sigma non-opioid intracellular receptor 1 (Q99720 whole entry): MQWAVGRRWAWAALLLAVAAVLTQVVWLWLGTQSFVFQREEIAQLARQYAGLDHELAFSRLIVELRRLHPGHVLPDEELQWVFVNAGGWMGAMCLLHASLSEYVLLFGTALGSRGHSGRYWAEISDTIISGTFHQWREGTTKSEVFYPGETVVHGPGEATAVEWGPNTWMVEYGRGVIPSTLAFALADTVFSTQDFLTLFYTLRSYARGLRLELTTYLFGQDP
# Sequence of Mu-type opioid receptor (P35372 whole entry): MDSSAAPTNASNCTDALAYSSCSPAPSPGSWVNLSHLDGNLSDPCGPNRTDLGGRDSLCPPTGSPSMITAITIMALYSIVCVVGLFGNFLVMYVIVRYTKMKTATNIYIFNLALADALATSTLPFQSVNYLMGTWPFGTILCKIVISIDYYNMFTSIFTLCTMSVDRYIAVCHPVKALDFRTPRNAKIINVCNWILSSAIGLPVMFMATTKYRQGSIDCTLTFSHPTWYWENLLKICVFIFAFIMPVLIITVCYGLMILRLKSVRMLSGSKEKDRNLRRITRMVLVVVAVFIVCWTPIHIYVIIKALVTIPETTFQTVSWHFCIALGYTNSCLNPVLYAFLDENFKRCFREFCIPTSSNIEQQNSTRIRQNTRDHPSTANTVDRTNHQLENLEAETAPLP
# Sequence of Histamine H4 receptor (Q9H3N8 whole entry): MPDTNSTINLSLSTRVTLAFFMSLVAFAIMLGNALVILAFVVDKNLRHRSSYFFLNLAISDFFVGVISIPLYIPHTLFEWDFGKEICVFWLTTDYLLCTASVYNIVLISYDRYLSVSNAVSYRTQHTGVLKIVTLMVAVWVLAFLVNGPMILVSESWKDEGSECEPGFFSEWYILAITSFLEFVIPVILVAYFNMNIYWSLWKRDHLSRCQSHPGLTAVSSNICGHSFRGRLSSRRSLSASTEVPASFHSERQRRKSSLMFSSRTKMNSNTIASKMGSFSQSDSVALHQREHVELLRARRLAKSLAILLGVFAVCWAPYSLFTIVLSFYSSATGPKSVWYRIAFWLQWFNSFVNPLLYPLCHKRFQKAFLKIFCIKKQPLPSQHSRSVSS
# Sequence of Kappa-type opioid receptor (P41145 whole entry): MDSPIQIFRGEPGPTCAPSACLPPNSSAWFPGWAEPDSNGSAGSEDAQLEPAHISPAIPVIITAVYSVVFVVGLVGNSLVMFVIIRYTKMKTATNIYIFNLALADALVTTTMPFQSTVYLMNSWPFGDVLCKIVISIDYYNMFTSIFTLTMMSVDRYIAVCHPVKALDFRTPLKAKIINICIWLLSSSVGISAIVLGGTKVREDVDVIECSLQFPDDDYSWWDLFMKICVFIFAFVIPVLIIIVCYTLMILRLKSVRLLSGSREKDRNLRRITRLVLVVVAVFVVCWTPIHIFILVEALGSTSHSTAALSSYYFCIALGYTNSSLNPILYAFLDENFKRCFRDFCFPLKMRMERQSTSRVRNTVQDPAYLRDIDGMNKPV
# Sequence of Sigma intracellular receptor 2 (Q5BJF2 whole entry): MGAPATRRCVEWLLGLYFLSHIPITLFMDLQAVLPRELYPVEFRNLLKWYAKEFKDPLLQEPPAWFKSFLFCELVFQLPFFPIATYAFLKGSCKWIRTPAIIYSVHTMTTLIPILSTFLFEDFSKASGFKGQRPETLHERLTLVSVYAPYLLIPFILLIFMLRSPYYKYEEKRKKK
# Sequence of Histamine H2 receptor (P25021 whole entry): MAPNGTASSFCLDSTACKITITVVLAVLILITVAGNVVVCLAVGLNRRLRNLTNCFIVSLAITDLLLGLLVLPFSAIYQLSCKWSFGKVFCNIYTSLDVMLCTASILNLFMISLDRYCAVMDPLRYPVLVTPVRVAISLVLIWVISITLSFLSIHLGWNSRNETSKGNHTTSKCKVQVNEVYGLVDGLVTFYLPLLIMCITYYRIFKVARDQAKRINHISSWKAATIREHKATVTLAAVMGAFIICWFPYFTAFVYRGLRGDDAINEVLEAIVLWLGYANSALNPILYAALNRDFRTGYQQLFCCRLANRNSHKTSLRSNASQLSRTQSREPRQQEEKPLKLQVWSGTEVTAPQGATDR
# Sequence of Histamine H3 receptor (Q9Y5N1 whole entry): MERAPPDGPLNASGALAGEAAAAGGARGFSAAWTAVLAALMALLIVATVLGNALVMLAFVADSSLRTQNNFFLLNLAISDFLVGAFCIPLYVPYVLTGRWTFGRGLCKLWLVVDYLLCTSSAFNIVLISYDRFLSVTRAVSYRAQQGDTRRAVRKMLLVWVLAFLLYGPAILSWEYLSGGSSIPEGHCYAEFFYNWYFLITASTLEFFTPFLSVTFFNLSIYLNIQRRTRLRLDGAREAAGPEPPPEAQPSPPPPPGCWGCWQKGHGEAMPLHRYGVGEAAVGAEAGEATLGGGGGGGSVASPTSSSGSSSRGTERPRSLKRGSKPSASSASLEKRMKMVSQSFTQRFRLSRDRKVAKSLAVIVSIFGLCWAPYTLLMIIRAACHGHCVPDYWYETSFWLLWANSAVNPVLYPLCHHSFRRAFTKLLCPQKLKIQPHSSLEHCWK
# Sequence of D(3) dopamine receptor (P35462 whole entry): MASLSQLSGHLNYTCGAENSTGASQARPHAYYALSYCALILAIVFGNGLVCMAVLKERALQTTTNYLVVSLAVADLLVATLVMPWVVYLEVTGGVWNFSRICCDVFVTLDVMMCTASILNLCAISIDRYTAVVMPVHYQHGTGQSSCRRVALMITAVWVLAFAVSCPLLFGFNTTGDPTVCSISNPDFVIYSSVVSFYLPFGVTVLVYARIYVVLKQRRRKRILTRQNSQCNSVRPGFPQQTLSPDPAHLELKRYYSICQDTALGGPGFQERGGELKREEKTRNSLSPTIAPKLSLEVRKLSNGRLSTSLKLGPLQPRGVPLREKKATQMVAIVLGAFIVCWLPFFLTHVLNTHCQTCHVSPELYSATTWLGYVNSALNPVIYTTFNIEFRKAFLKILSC
# Sequence of 5-hydroxytryptamine receptor 2A (P28223 whole entry): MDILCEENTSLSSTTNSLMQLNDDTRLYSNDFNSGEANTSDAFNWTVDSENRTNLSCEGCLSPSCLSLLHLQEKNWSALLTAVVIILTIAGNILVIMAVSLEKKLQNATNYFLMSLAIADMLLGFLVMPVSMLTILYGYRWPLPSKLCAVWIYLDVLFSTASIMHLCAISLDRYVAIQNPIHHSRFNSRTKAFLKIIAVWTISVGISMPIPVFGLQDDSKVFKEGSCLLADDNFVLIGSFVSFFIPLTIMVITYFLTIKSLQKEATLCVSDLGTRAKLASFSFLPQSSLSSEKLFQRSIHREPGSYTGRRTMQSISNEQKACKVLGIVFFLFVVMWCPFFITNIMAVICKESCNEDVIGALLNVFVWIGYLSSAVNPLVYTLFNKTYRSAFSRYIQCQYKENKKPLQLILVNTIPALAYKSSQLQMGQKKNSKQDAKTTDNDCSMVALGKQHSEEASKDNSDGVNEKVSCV
# Sequence of Sodium-dependent dopamine transporter (Q01959 whole entry): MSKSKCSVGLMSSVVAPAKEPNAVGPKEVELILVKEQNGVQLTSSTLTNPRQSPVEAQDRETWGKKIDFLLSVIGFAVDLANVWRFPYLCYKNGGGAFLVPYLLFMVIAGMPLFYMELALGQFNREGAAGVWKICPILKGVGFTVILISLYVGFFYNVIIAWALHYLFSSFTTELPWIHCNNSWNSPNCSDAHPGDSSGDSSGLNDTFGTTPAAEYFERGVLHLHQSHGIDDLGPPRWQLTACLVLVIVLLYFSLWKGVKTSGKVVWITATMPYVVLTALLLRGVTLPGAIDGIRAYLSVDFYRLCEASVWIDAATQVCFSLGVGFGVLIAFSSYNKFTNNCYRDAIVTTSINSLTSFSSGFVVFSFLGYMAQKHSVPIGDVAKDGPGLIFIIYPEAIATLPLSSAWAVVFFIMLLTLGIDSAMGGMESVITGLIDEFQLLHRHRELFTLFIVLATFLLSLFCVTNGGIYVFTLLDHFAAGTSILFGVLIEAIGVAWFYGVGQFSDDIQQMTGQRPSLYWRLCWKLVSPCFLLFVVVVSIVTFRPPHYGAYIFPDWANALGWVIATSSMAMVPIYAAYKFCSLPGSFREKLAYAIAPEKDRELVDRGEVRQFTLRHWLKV
smiles,measurement,setting,value
C[C@@H](N)Cc1c[nH]cn1,Ki,Histamine H4 receptor,169 nM
C=CCN1C[C@H](C)N([C@H](c2ccc(C(=O)N(CC)CC)cc2)c2cccc(O)c2)C[C@H]1C,Ki,[1],23.3 nM
same,Ki,[2],3.85 nM
same,Ki,[3],108 nM
same,Ki,Mu-type opioid receptor,14.7 nM
Cc1cn2cc(CC(=O)N3CCC4(CC3)CN(Cc3ccc(-n5nccn5)cc3Cl)C4)nc2s1,Ki,[4],1530 nM
same,Ki,D(4) dopamine receptor,1360 nM
same,Ki,[5],846 nM
same,Ki,[6],243 nM
same,Ki,[7],> 10000 nM
same,Ki,[8],181 nM
same,Ki,Histamine H2 receptor,3300 nM
same,Ki,[3],520 nM
same,Ki,D(3) dopamine receptor,480 nM
same,Ki,[9],662 nM
CN(C(=O)Cc1ccc(Cl)c(Cl)c1)C(CN1CCCC1)c1cccc(OCC(=O)O)c1 (stereo not drawn),Ki,[2],411 nM
same,Ki,Mu-type opioid receptor,323 nM
same,Ki,[9],5910 nM
N#Cc1c(N)nc(SCc2csc(-c3ccc(Cl)cc3)n2)c(C#N)c1-c1ccc(OCCO)cc1 [CAPADENOSON],Ki,[10],3190 nM
same,Ki,[2],> 10000 nM
N=C(N)SCCc1cnc[nH]1,Ki,Histamine H4 receptor,4.86 nM
same,Ki,Histamine H3 receptor,0.632 nM
same,Ki,[11],4040 nM
Cc1c(C2=CCN(C(=O)N(C)C(C)C)CC2)nnn1-c1cccnc1F,Ki,[12],> 10000 nM
same,Ki,[2],> 10000 nM
same,Ki,[13],8120 nM
same,Ki,[14],> 10000 nM
same,Ki,Histamine H1 receptor,1450 nM
